What was measured:
[1] = Pharmacokinetic testing evaluation, Test Example 4 (rat plasma); assay type: in vivo, SD rats; details: for plasma exposure AUC relative to compound MGL-3196: rats, 10 mg/kg intragastric, Table 5
Procedure: (§1) Male SD rats, weighing about 220 g, were divided into 3 groups after fasting overnight, with 4 rats in each group. The first group was intragastrically administered 10 mg/kg solution of compound MGL-3196 prepared in Example 1, the second group was intragastrically administered 10 mg/kg solution of compound 2A prepared in Example 2 (The dosage is calculated by the relative content of compound MGL-3196 prepared in Example 1), and the third group was intragastrically administered 10 mg/kg solution of compound 2B prepared in Example 2 (The dosage is calculated by the relative content of compound MGL-3196 prepared in Example 1), wherein the vehicle of the solution of compound MGL-3196, compound 2A, and compound 2B is DMSO/PEG400. Blood was collected from each group at 0.5, 1.0, 2.0, 4.0, 6.0, 8.0, 12 and 24 hours after administration, and the concentration of active ingredient MGL-3196 in plasma was determined by LC/MS/MS.

[2] = Drug concentrations in liver tissue, Test Example 5; assay type: in vivo, ICR mice; details: mouse liver at 1 hr and 6 hr, 10 mg/kg intragastric
Procedure: ICR mice, weighing 20-30 g, were divided into 4 groups after fasting overnight, with 8 mice in each group. The first group was intragastrically administered 10 mg/kg solution of compound MGL-3196 prepared in Example 1, the second group was intragastrically administered 10 mg/kg solution of compound 2A prepared in Example 2 (The dosage is calculated by the relative content of compound MGL-3196 prepared in Example 1), the third group was intragastrically administered 10 mg/kg solution of compound 2B prepared in Example 2 (The dosage is calculated by the relative content of compound MGL-3196 prepared in Example 1) and the fourth group was intragastrically administered 10 mg/kg solution of compound 6B prepared in Example 6 (The dosage is calculated by the relative content of compound MGL-3196 prepared in Example 1), wherein the vehicle of the solution of compound MGL-3196, compound 2A, compound 2B and compound 6B is DMSO/PEG400. The livers of mice in each group were collected at 1 hr and 6 hr after administration, respectively, and the concentration of the active ingredient MGL-3196 in the liver was determined by LC/MS/MS.

[3] = test system: Diet-Induced Obesity (DIO) C57Bl/6J mouse; experiment: Diet-induced obesity (DIO) C57Bl/6J mouse model; assay type: in vivo; details: DIO C57Bl/6J mice, 1, 3 or 10 mg/kg intragastric, 23 consecutive days
Procedure: 6-week-old C57Bl/6J mice were given a high-fat diet for 34 weeks. Mice were intragastrically administered vehicle (2% Klucel LF, 0.1% Tween 80 in water); 1, 3 or 10 mg/kg of compound 2A, compound 2B prepared in Example 2 or compound MGL-3196 prepared in Example 1 starting from day 0 (1st day of 35 weeks) respectively, 9 mice in each group, for 23 consecutive days. In a parallel study, mice were intragastrically administered vehicle (Dulbecco's phosphate buffered saline, pH adjusted to 9.0 with 1N NaOH) or 10, 30 or 100 μg/kg triiodothyronine (T3) starting from day 0 (day 1 of week 35) respectively, 9 mice in each group, for 23 consecutive days. Body weight and food intake were monitored during the study. BMD and body composition analyses were performed on day 22. At necropsy on day 23, organ weighing was performed and cholesterol and other blood biochemical parameters of blood samples were evaluated.

[4] = Pharmacokinetic testing evaluation, Test Example 3 (rat plasma); assay type: in vivo, SD rats
Procedure: as §1, with “1, and” for “1,”, “6B” for “2A”, “6” for “2 (The dosage is calculated by the relative content of compound MGL-3196 prepared in Example 1), and the third group was intragastrically administered 10 mg/kg solution of compound 2B prepared in Example 2”, “MGL-3196” for “MGL-3196, compound 2A,”, “6B prepared in Example 6” for “2B”

[5] = Pharmacokinetic testing evaluation, Test Example 1 (rat plasma); assay type: in vivo; details: male SD rats, intragastric 10 mg/kg (calculated based on MGL-3196), DMSO/PEG400; plasma concentration of MGL-3196; n = 4, mean
Procedure: Male SD rats, weighing about 220 g, were divided into 2 groups after fasting overnight, with 4 rats in each group. The first group was intragastrically administered 10 mg/kg solution of compound MGL-3196 prepared in Example 1, and the second group was intragastrically administered 10 mg/kg solution of compound of Example 5 of WO2009037172A1 (The dosage is calculated by the relative content of compound MGL-3196 prepared in Example 1), wherein the vehicle of the solution of compound MGL-3196 and compound of Example 5 of WO2009037172A1 is DMSO/PEG400. Blood was collected from each group at 0.5, 1.0, 2.0, 4.0, 6.0, 8.0, 12 and 24 hours after administration, and the concentration of active ingredient MGL-3196 in plasma was determined by LC/MS/MS.

[6] = Pharmacokinetic testing evaluation, Test Example 2 (rat plasma); assay type: in vivo; details: male SD rats, intragastric 10 mg/kg (calculated based on MGL-3196), DMSO/PEG400; MGL-3196 measured in plasma; n = 4, mean
Procedure: Male SD rats, weighing about 220 g, were divided into 2 groups after fasting overnight, with 4 rats in each group. The first group was intragastrically administered 10 mg/kg solution of compound MGL-3196 prepared in Example 1, and the second group was intragastrically administered 10 mg/kg solution of compound 6A prepared in Example 6 (The dosage is calculated by the relative content of compound MGL-3196 prepared in Example 1), wherein the vehicle of the solution of MGL-3196 compound and compound 6A prepared in Example 6 is DMSO/PEG400. Blood was collected from each group at 0.5, 1.0, 2.0, 4.0, 6.0, 8.0, 12 and 24 hours after administration, and the concentration of active ingredient MGL-3196 in plasma was determined by LC/MS/MS.

[7] = male SD rats, intragastric 10 mg/kg (calculated based on MGL-3196), DMSO/PEG400, MGL-3196 measured in plasma, n = 4, mean

Structure (SMILES)	plasma exposure AUC relative to compound MGL-3196 [1]	drug concentration in mouse liver compared to MGL-3196 [2]	efficacy in lowering cholesterol and liver fat [3]	plasma exposure AUC relative to compound MGL-3196 ([4]; rats, 10 mg/kg intragastric, Table 4)	T1/2 [5]	Tmax [5]	T1/2 [6]	Tmax [6]	T1/2 [4, 7]	Tmax [4, 7]	T1/2 [1, 7]	Tmax [1, 7]
CC(C)OC(=O)OC(C)n1nc(Oc2c(Cl)cc(-n3nc(C#N)c(=O)[nH]c3=O)cc2Cl)cc(C(C)C)c1=O (centres unmarked) [Compound 2A, 1-(3-(2,6-dichloro-4-(6-cyano-3,5-dioxo-4,5-dihydro-1,2,4-triazin-2(3H)-yl)phenoxy)-5-isopropyl-6-oxopyridazin-1(6H)-yl)ethyl Isopropyl Carbonate]	2.4 times	higher drug concentrations	excellent efficacy in lowering cholesterol and liver fat									
CC(C)OC(=O)OC(C)Oc1nnc(Oc2c(Cl)cc(-n3nc(C#N)c(=O)[nH]c3=O)cc2Cl)cc1C(C)C (centres unmarked) [Compound 2B, 1-((6-(2,6-dichloro-4-(6-cyano-3,5-dioxo-4,5-dihydro-1,2,4-triazin-2(3H)-yl)phenoxy)-4-isopropylpyridazin-3-yl)oxy)ethyl Isopropyl Carbonate]	1.87 times	higher drug concentrations	excellent efficacy in lowering cholesterol and liver fat									
CC(C)OC(=O)OCOc1nnc(Oc2c(Cl)cc(-n3nc(C#N)c(=O)[nH]c3=O)cc2Cl)cc1C(C)C [Compound 6B, ((6-(2,6-dichloro-4-(6-cyano-3,5-dioxo-4,5-dihydro-1,2,4-triazin-2(3H)-yl)phenoxy)-4-isopropylpyridazin-3-yl)oxy)methyl Isopropyl Carbonate]		higher drug concentrations	excellent efficacy in lowering cholesterol and liver fat	2.0 times								
CC(C)c1cc(Oc2c(Cl)cc(-n3nc(C#N)c(=O)[nH]c3=O)cc2Cl)n[nH]c1=O [MGL-3196, 2-(3,5-dichloro-4-((5-isopropyl-6-oxo-1,6-dihydropyridazin-3-yl)oxy)phenyl)-3,5-dioxo-2,3,4,5-tetrahydro-1,2,4-triazin-6-carbonitrile]					3.35 h	2.75 h	3.54 h	5.00 h	3.55 h	6.0 h	3.73 h	4.5 h

Reference: patent publication US20230109134A1, “PYRIDAZINONE OR PYRIDAZINE COMPOUND AND DERIVATIVE AND PHARMACEUTICAL COMPOSITION THEREOF” (Suzhou Zelgen Biopharmaceuticals Co., Ltd., priority 2019, published 2023)
